Reference: publication PMC11551755, “Structure-based discovery of first inhibitors targeting the helicase activity of human PIF1” (Nucleic Acids Research, 2024)
Read-outs that look alike come from different tables or passages of the source.

T1: FLhPIF1 (Homo sapiens, UniProt Q9H611)
T1 construct: Full length human PIF1 (FLhPIF1) was expressed and purified as a His-SUMO fusion; His-SUMO (cleaved yes); made in house; 'following similar protocols' to hPIF1HD (ArcticExpress BL21(DE3) E. coli)
T1 sequence (Q9H611 1-641): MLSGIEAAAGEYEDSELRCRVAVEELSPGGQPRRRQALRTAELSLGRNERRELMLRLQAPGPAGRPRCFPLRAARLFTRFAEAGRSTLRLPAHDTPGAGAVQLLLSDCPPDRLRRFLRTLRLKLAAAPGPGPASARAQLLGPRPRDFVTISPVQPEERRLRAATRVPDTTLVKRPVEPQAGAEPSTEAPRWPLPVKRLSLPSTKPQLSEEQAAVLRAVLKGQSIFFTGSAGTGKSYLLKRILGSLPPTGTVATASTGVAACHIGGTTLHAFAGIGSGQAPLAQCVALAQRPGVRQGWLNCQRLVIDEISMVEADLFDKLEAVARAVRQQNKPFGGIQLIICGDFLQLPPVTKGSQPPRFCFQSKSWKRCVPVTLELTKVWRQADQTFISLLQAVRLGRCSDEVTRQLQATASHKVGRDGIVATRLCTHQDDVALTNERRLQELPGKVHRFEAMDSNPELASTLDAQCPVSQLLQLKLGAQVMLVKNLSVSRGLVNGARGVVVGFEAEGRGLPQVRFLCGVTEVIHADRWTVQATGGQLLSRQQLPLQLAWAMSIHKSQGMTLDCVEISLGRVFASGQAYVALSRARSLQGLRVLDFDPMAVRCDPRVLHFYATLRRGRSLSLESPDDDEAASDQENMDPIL

T2: human UPF1 (hUPF1) helicase (Homo sapiens, UniProt Q92900)
T2 construct: Full-length human UPF1 helicase was expressed and purified as described previously; made in house
T2 sequence (Q92900 1-1129): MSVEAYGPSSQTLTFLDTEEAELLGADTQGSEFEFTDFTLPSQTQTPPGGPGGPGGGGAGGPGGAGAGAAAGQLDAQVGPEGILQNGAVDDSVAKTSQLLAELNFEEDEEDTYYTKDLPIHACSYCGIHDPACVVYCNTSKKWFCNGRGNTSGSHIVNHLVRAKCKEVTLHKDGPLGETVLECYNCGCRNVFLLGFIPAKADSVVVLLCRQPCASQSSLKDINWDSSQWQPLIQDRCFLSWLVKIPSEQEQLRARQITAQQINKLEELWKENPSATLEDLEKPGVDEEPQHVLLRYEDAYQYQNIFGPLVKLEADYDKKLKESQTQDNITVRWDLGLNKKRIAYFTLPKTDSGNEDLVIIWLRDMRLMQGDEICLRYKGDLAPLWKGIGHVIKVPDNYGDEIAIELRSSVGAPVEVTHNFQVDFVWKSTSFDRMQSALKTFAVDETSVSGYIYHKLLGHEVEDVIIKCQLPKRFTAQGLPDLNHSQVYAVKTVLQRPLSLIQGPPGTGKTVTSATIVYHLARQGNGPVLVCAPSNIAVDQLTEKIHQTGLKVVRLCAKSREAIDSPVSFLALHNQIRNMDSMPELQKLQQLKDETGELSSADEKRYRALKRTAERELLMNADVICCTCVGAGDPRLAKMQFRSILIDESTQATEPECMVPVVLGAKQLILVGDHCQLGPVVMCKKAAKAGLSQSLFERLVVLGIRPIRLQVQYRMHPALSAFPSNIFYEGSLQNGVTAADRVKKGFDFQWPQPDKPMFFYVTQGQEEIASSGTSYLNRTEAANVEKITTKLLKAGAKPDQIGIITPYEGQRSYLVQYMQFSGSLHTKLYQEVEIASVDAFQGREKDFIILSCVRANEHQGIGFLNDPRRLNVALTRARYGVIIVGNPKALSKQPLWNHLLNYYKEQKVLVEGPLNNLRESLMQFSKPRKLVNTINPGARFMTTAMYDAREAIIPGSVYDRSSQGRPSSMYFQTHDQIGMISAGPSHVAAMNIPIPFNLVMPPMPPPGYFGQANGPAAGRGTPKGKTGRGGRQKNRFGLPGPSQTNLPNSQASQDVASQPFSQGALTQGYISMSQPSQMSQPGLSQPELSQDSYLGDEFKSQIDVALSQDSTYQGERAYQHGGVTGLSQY

T3: hPIF1HD wild type (Homo sapiens, UniProt Q9H611 206-620)
T3 sequence: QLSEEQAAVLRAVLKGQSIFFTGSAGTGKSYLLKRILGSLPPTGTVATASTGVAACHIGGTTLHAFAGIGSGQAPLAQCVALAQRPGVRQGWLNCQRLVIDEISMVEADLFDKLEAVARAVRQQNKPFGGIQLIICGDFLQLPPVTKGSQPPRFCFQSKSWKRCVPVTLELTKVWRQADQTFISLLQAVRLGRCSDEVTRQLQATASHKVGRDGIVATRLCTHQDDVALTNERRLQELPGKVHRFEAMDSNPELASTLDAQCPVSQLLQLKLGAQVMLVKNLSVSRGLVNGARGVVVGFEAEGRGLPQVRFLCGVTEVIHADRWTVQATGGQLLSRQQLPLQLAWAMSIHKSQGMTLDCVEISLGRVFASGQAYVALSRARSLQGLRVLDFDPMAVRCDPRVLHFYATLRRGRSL


Legend:
FLhPIF1 = target: T1, FLhPIF1; assay: helicase assay after pre-incubation of SMI with FLhPIF1; assay type: biochemical; settings: for IC50: read-out: IC50 for dsDNA unwinding by FLhPIF1 following pre-incubation
Protocol: Helicase activity was assayed using a radiometric strand displacement assay employing a partially single- and double-stranded substrate generated by annealing two oligonucleotides: 5′-(T)55-[…] and 5′-[…], as described previously ([19],[28]). The reaction buffer was 20 mM HEPES–NaOH pH 7.5, 20 mM NaCl, 5.5 mM MgCl2, 5 mM ATP, 1 mM DTT and 0.1 mg/ml BSA. SMIs (100 mM stocks in DMSO) were assayed at up to 2 mM without pre-incubation with FLhPIF1, unless otherwise stated. Reactions (0.1 nM substrate) were incubated at 37°C for 20 min, followed by addition of 0.2 volumes of 120 mM EDTA, 0.6% (w/v) SDS, 60% (v/v) glycerol and 0.1% (w/v) bromophenol blue before resolution of products by polyacrylamide gel electrophoresis (8%, 19:1 acrylamide:bis-acrylamide), 1× TBE (90 mM Tris–borate/2 mM EDTA, pH 8.3 with 0.05% (w/v) SDS buffer). Dried gels were exposed to phosphorimaging plates (Fujifilm) for imaging and quantification (Fuji FLA3000, image gauge V3.3 software). IC50 values were analysed by non-linear regression (variable slope) using GraphPad Prism.
First, we screened inhibitory activity of the SMIs listed in Table 1, following incubation of 100 nM FLhPIF1 with 100 μM SMI for 1 h at 22°C in the absence of substrates (ATP and DNA), before a 1:10 dilution into helicase reactions. […] Next, compounds 2, 5, 6 and 11, along with 4 and 1D were selected for analysis in a pre-incubation time-course (100 nM FLhPIF1, 100 μM SMI), up to 3 h before assaying helicase activity.
(§1) In parallel, IC50 values for inhibition of human UPF1 (hUPF1) helicase activity by the SMIs were also determined under the same conditions. UPF1-like SF1B helicases are the most closely related family of helicases to PIF1, with significant structural and mechanistic similarity ([52]).
(§2) Figure 6. SMI IC50 for dsDNA unwinding determined following pre-incubation. SMIs (0.0078–2 mM SMI) were incubated for 2 h at 22°C (100 nM FLhPIF1 or hUPF1) before dilution (1:10) in the standard helicase assay (0.1 nM DNA substrate). For 1D and 6, structures, electrophoresis of FLhPIF1 reaction product and graphs for IC50 value determination are shown. The graphed data include the activity of SMIs towards hUPF1 and IC50 values obtained are given. See Supplementary Figure S14 for the complete data set. TEXT PRINTED IN THE PICTURE: 1D: IC50 (μM): PIF1: 978 ± 221; IC50 (μM): UPF1: N.D. | 6: IC50 (μM): PIF1: 79.4 ± 16; IC50 (μM): UPF1: 1750 ± 426

[1] = target: T2, human UPF1 (hUPF1) helicase; assay: helicase assay after pre-incubation of SMI with hUPF1; assay type: biochemical; settings: 2 h pre-incubation
Protocol: Full-length human UPF1 helicase was expressed and purified as described previously ([36]).
as §1, §2
Supplementary Figure 14. IC50 DNA unwinding determined following 2 hours pre-incubation. […] The assay procedure and reaction conditions for each helicase were identical (see methods, main manuscript). The figure complements main manuscript Figure 6. […] The reason for this is unclear.

hPIF1HD wild type = target: T3, hPIF1HD wild type; assay: EMSA; 5 mM AMP-PNP, 5.5 mM MgCl2; 2 nM protein, 0.25 nM DNA; no inhibitor; 20 mM HEPES-NaOH pH 7.5, 20 mM NaCl, 5.5 mM MgCl2, 5 mM AMP-PNP, 1 mM DTT, 0.1 mg/ml BSA; 0.25 nM DNA; binding temperature not stated explicitly (helicase assay conditions 37 C); 5% PAGE, 0.25x TBE; settings: protein: recombinant; tags: N-terminal His6 removed; GSRM cloning residues remain; label: 5'-32P; single strand

Row | IC50 (FLhPIF1; 2 h pre-incubation at 22°C with 100 nM FLhPIF1, then 1:10 dilution into helicase assay) [µM] | IC50 (FLhPIF1; 2 h pre-incubation at 22°C) [µM] | increase in inhibition of FLhPIF1 DNA unwinding after pre-incubation (FLhPIF1; 3 h pre-incubation, 100 nM FLhPIF1, 100 μM SMI) | inhibition of hUPF1 helicase [1] | Molecule | binding result (hPIF1HD wild type)
1 | 978 ± 221 | ~1000 | 5–10% | minimal inhibition | CC(=O)Nc1ccc(-c2csc(N)n2)cc1 [Compound 1D] | 
2 |  |  |  |  | oligo d(T)55 (ssDNA) DNA: TTTTTTTTTTTTTTTTTTTTTTTTTTTTTTTTTTTTTTTTTTTTTTTTTTTTTTT | binds
